Experimental findings from article PMC6266398, “Anti-Acanthamoeba Activity of Brominated Sesquiterpenes from Laurencia johnstonii” (Marine Drugs, 2018) are described below.

In brackets after ≈: the same amount, converted by molar mass. Several values for one entry are separate records, joined by “and”; a condition that tells them apart may be missing. Equal entries are not always repeated. Where two headings read alike, the source gives them in different places.

Data set [1] relates to Acanthamoeba castellanii Neff. Description: anti-Acanthamoeba activity, alamarBlue method. The class given is cell-based. As to conditions: for anti-Acanthamoeba activity (in words): Acanthamoeba castellanii Neff; for IC50: Acanthamoeba castellanii, ATCC30010, 96 h, read-out: IC50 against Acanthamoeba castellanii Neff. How it is done: The amoeba strain used in this study was the type strain: Acanthamoeba castellanii Neff (ATCC 30010) which was axenically grown in PYG medium (0.75% (w/v) proteose peptone, 0.75% (w/v) yeast extract and 1.5% (w/v) glucose) containing 40 μg/mL of gentamicin (Biochrom AG, Cultek, Granollers, Barcelona, Spain).
To evaluate the biological activity of the fractions and molecules, the anti-Acanthamoeba assays were determined using the alamarBlue® method as previously described. Firstly, Acanthamoeba strain was seeded in triplicate on a 96-well microtiter plates with 50 μL from a stock solution of 10^4 cells/mL. Amoebae were left to adhere to the bottom of the well for 15 min, which was checked using a Leika DMIL inverted microscope (Leika, Wetzlar, Germany). After that, 50 μL of serial dilutions of the molecules were added to the wells (1% DMSO was used to dissolve the highest dose of the compounds with no effects on the parasites). […] Finally, the alamarBlue Reagent® (Life Technologies, Madrid, Spain) was placed into each well at an amount equal to 10% of the final volume. Then, plates containing alamarBlue® were incubated for 96 h at 26 °C with a slight agitation.
(§1) Briefly, the test plates were analyzed, during an interval of time between 24 and 96 h, on an EnSpire® Multimode Plate Reader (Perkin Elmer, Madrid, Spain) using fluorescence, a test wavelength of 570 nm and a reference wavelength of 630 nm. The percentage of the growth inhibition, 50% inhibitory concentration (IC50 or CC50) was calculated by linear regression analysis with 95% confidence limits using Sigma Plot 12.0 statistical analysis software (Systat Software). All experiments were performed three times, and the mean values were also calculated. A paired two-tailed t-test was used for analysis of the data. Values of p < 0.05 were considered significant.

Data set [2] can be described thus: cytotoxicity test, alamarBlue method. It counts as cell-based. The note with it: mouse, 37 °C, read-out: CC50 against murine macrophage J774.A1. The protocol: The murine macrophages J774A.1 (ATCC# TIB-67) cell line was cultured in RPMI 1640 medium supplemented with 10% fetal bovine serum at 37 °C and 5% CO2 atmosphere, was used for the cytotoxicity assays.
The cytotoxicity assay was carried out using the alamarBlue® method as previously described. Firstly, the macrophages were seeded in triplicate on a 96-well microtiter plates with 50 μL from a stock solution of 2 × 10^5 cells/mL. Macrophages were left to adhere to the bottom of the well for 15 min, which was checked using a Leika DMIL inverted microscope (Leika, Wetzlar, Germany). After that, 50 μL of serial dilutions of the molecules were added to the wells. Finally, the alamarBlue Reagent® (Life Technologies, Madrid, Spain) was placed into each well at an amount equal to 10% of the final volume. Then, plates containing alamarBlue® were incubated for 24 h at 37 °C in presence of CO2 at 5%.
as §1

Where [3] appears, read: Neff strain (ATCC 30010), alamarBlue, 96 h at 26 °C.
[4] abbreviates: J774A.1 macrophages (ATCC TIB-67).

`Cc1cc(O)c(C2(C)CCC3CC32C)cc1Br` (centres unmarked) [compound 1, laurinterol]: the “anti-Acanthamoeba activity (in words)” value in data set [1] was “inactive”. The IC50 in data set [1] (setting [3]) was greater than 100 µg/mL. Moreover, the CC50 at 24 h in data set [2] (setting [4]) amounted to 23.6 ± 2.3 µg/mL (≈ 80.1 µM).
Consider `Cc1cc2c(cc1Br)[C@]1(C)CC[C@H](C)[C@]1(C)O2` [compound 3, aplysin], for which the IC50 in data set [1] (setting [3]) is greater than 100 µg/mL. In addition, in data set [2] (setting [4]), the CC50 at 24 h was found to be 324 ± 12 µg/mL (≈ 1100 µM).
Take `Cc1c(Br)cc2c(c1Br)O[C@@]1(C)[C@@H](C)CC[C@@]21C` [compound 6, 8-Bromoaplysin]: the IC50 in data set [1] (setting [3]) was 24.6 µg/mL and 65.6 µM. Moreover, in data set [2] (setting [4]), the CC50 at 24 h was found to be 32.9 ± 3.12 µg/mL (≈ 87.9 µM).
For `C=C1[C@@H](C)CC[C@@]1(C)c1cc(Br)c(C)cc1O` [compound 2, isolaurinterol], the “anti-Acanthamoeba activity (in words)” value in data set [1] was “inactive”. Further, the IC50 in data set [1] (setting [3]) was greater than 100 µg/mL. Also, in data set [2] (setting [4]), the CC50 at 24 h came to 7.25 ± 0.7 µg/mL (≈ 24.6 µM).
Turning to `Cc1ccc([C@]2(C)CC[C@H](Br)C2(C)C)cc1` [compound 5, α-isobromocuparane], in data set [1] (setting [3]), the IC50 is 64.2 µg/mL and 228 µM; the “IC50 against Acanthamoeba castellanii Neff” value was found to be 64.251 ± 3.492 µg/mL (≈ 228 µM). Besides, the CC50 at 24 h in data set [2] (setting [4]) was found to be 85.3 ± 10.9 µg/mL (≈ 303 µM).
Take `Cc1c(Br)cc2c(c1Br)O[C@@]1(C)C[C@@H](Br)CC[C@@]21C` [compound 7, 3α-Bromojohnstane]: the IC50 in data set [1] (setting [3]) is 18.8 µg/mL and 41.5 µM. Moreover, the CC50 at 24 h in data set [2] (setting [4]) turned out to be 62.3 ± 2.59 µg/mL (≈ 138 µM).
Take `Cc1c(Br)cc2c(c1Br)O[C@@]1(CO)[C@@H](C)CC[C@@]21C` [compound 9, 8,10-Dibromoaplysinol]: the IC50 in data set [1] (setting [3]) was 29.9 µg/mL and 76.7 µM. Further, the CC50 at 24 h in data set [2] (setting [4]) amounted to 74.9 ± 2.77 µg/mL (≈ 192 µM).
In the case of `[H]/N=C(\N/C(=N/[H])NCCCCCCNC(=N)NC(=N)Nc1ccc(Cl)cc1)Nc1ccc(Cl)cc1` [Chlorhexidine, chlorhexidine, reference compound], the IC50 in data set [1] (setting [3]) is 1.53 µg/mL and 3.02 µM. Moreover, the CC50 at 24 h in data set [2] (setting [4]) was 6.64 ± 0.35 µg/mL (≈ 13.1 µM).
In the case of `Cc1ccc([C@]2(C)CC[C@@H](Br)C2(C)C)cc1` [compound 4, α-bromocuparane], in data set [1] (setting [3]), the IC50 was 90.7 µg/mL and 322 µM; the “IC50 against Acanthamoeba castellanii Neff” value amounted to 90.674 ± 1.529 µg/mL (≈ 322 µM). Further, in data set [2] (setting [4]), the CC50 at 24 h came to 33 ± 4.2 µg/mL (≈ 117 µM).
Regarding `Cc1c(Br)cc2c(c1Br)O[C@@]1(CBr)[C@@H](C)CC[C@@]21C` [compound 8, 8,10-Dibromoisoaplysin], in data set [1], the IC50 was 22.8 µg/mL and 50.4 µM. In data set [2], the CC50 at 24 h turned out to be 70.4 ± 3.25 µg/mL (≈ 155 µM).
As for `C[C@@H](c1ncncc1F)[C@](O)(Cn1cncn1)c1ccc(F)cc1F` [Voriconazole, voriconazole, reference compound], the IC50 in data set [1] (setting [3]) was 0.33 µg/mL and 940 nM. The CC50 at 24 h in data set [2] (setting [4]) was found to be 2.64 ± 0.27 µg/mL (≈ 7.56 µM).
